Read-outs that look alike come from different tables or passages of the source.
What was measured:
[1] = system: Pythium ultimum; experiment: Fungitoxicity assay against Pythium ultimum (mycelial dry weight, liquid broth); type: cell-based; details: for Relative Effectiveness against Pythium ultimum: EC50 of racemic mixture divided by EC50 of the enantiomer, growth 48 hours at 25° C.
Description: (§1) A series of dilutions of each test compound was prepared in dimethyl sulfoxide, and 0.1 ml of each dilution was added to 19.9 ml of a liquid asparagine-sucrose broth (Erwin, D. C. and Katznelson, K., 1971, Can. J. Microbiol. 7, 15) in 9 cm diameter petri dishes to give the desired concentrations of test compound in the medium. Each plate was inoculated with a mycelial plug, 7 mm in diameter, taken from the growing edge of a culture of Pythium ultimum grown on potato dextrose agar. Two replicate plates were used for each treatment. The increase in mycelial dry weight was determined after growth for 48 hours at 25° C. with shaking on a gyrotary shaker at 60 rpm. Pythium EC50 values were calculated from dose response curves. As used herein, the terminology “EC50” means the concentration of test compound required to inhibit growth by 50% as compared to a control lacking the test compound.
(§2) In order to compare the activity of individual isomers with that of the corresponding racemic mixture, the relative effectiveness of each compound was calculated. As used herein, relative effectiveness means the EC50 value for a racemic mixture of the particular compound divided by the EC50 value for one enantiomer. The relative effectiveness of the racemic mixture itself is 1.0.

[2] = system: Botrytis cinerea; experiment: Fungitoxicity assay against Botrytis cinerea (colony diameter on agar); type: cell-based; details: EC50 of racemic mixture divided by EC50 of the enantiomer; 48 hours at 25° C.
Description: A series of dilutions of each test compound was prepared in dimethyl sulfoxide and 125 microliters […] of each dilution was added to 25 ml of molten potato dextrose agar to give the desired concentrations of test compound. The mixtures were poured immediately into 9 cm diameter petri dishes. Each plate was inoculated with a 7 mm diameter mycelial plug taken from the growing edge of a 5 day old culture of B. cinerea grown on potato dextrose agar.
as §2

[3] = system: Phytophthora capsici; experiment: Fungitoxicity assay against Phytophthora capsici (mycelial dry weight, liquid broth); type: cell-based; details: EC50 of racemic mixture divided by EC50 of the enantiomer; growth 96 h
Description: as §1
The procedure described above for Pythium ultimum was used except that the mycelial plugs used for inoculation were taken from the growing edge of cultures of Phytophthora capsici grown on V-8 juice agar, pH 7.0, containing 200 ml V-8 juice, 4 g CaCO3, and 20 g agar per liter, and the increase in mycelial dry weight was determined after growth for 96 h.
as §2

[4] = system: Phytophthora infestans; type: in vivo; details: tomato seedlings, treated before inoculation, 6 days after inoculation
[5] = system: Plasmopara viticola; experiment: Grape Downy Mildew (GDM); type: in vivo; details: grape plants, treated before inoculation, scored after 7-8 days
Description: (§3) Cultures of Plasmopara viticola were maintained on grape seedlings derived from tissue culture. Leaves with sporulating mildew were rinsed in water to obtain the desired concentration of spores. A DeVilbiss atomizer was used to apply a suspension of spores to fungicide-treated lower leaves of the grape plants. The plants were kept in a humidity cabinet at 100% relative humidity for 24 hours and then placed in a controlled temperature chamber at 25° C. for 7-8 days before scoring. Disease evaluations were recorded as percent disease control.

[6] = system: Phytophthora infestans; type: in vivo; details: tomato, compound applied two days after inoculation
[7] = system: Plasmopara viticola; experiment: Grape Downy Mildew-Curative (GDC); type: in vivo; details: compound applied two days after inoculation
Description: as §3
The curative properties of the test compounds were evaluated using the same procedure as that set forth above in the section entitled “GRAPE DOWNY MILDEW”, except that the test compound was applied to the plants two days after inoculation with the pathogen.

[8] = system: Botrytis cinerea; experiment: Gray Mold on Tomato-Curative (BOC); type: in vivo; details: tomato plants, compound applied 2 days after inoculation
Description: Botrytis cinerea cultures were maintained on potato dextrose agar. A dextrose solution was used to wash spores from sporulating cultures. A DeVilbiss atomizer was used to apply the resulting spore suspension to tomato plants. The plants were placed in a humidity cabinet at 100% relative humidity, and the test compound was applied to the plants after 2 days. The plants were returned to the humidity cabinet for a further 3-5 days before scoring. Disease evaluations were recorded as percent disease control.

Row | Compound | Relative Effectiveness against Pythium ultimum [1] | Relative Effectiveness against Botrytis cinerea [2] | Relative Effectiveness against Phytophthora capsici [3] | TLB percent disease control ([4]; 19 ppm) [%] | TLB percent disease control ([4]; 75 ppm) [%] | TLB percent disease control ([4]; 300 ppm) [%] | GDM percent disease control ([5]; 19 ppm) [%] | GDM percent disease control ([5]; 75 ppm) [%] | GDM percent disease control ([5]; 300 ppm) [%] | TLC percent disease control ([6]; 19 ppm) [%] | TLC percent disease control ([6]; 75 ppm) [%] | TLC percent disease control ([6]; 300 ppm) [%] | GDC percent disease control ([7]; 19 ppm) [%] | GDC percent disease control ([7]; 75 ppm) [%] | GDC percent disease control ([7]; 300 ppm) [%] | BOC percent disease control ([8]; 19 ppm) [%] | BOC percent disease control ([8]; 75 ppm) [%] | BOC percent disease control ([8]; 300 ppm) [%] | further results
1 | CCC(C)(NC(=O)c1cc(Cl)c(C)c(Cl)c1)C(=O)CCl (stereo not drawn) [Compound 1] |  |  |  |  |  |  |  |  |  |  |  |  |  |  |  |  |  |  | Relative Effectiveness (expected) against Pythium ultimum ([1]; 50 % S in the Mixture of racemate and S enantiomer): 1.000; Relative Effectiveness (expected) against Pythium ultimum ([1]; 60 % S in the Mixture of racemate and S enantiomer): 1.236; Relative Effectiveness (expected) against Pythium ultimum ([1]; 70 % S in the Mixture of racemate and S enantiomer): 1.472; Relative Effectiveness (expected) against Pythium ultimum ([1]; 80 % S in the Mixture of racemate and S enantiomer): 1.708; Relative Effectiveness (expected) against Pythium ultimum ([1]; 90 % S in the Mixture of racemate and S enantiomer): 1.944; Relative Effectiveness (expected) against Pythium ultimum ([1]; 100 % S in the Mixture of racemate and S enantiomer): 2.180
2 | CCC(C)(NC(=O)c1cc(Cl)cc(Cl)c1)C(=O)CCl (racemic) [Compound 2, racemate] | 1.00 | 1.00 |  |  |  |  |  |  |  |  |  |  |  |  |  |  |  |  | 
3 | CC[C@@](C)(NC(=O)c1cc(Cl)cc(Cl)c1)C(=O)CCl [Compound 2, R enantiomer] | 0.055 | 0.17 |  |  |  |  |  |  |  |  |  |  |  |  |  |  |  |  | 
4 | CCC(C)(NC(=O)c1cc(Cl)c(C)c(Cl)c1)C(=O)CCl (racemic) [Compound 1, racemate] | 1.00 | 1.00 | 1.00 | 85 | 100 | 95 | 99 | 100 | 100 | 80 | 90 | 95 | 50 | 50 | 90 | 50 | 75 | 90 | 
5 | CC[C@@](C)(NC(=O)c1cc(Cl)c(C)c(Cl)c1)C(=O)CCl [Compound 1, R enantiomer, (R)-N-(3-chloro-1-ethyl-1-methyl-2-oxopropyl)-3,5-dichloro-4-methylbenzamide] | 0.037 | <0.076 | 0.0072 | 25 | 50 | 75 | 0 | 0 | 0 | 0 | 0 | 0 | 0 | 0 | 0 | 0 | 0 | 0 | 
6 | CC[C@](C)(NC(=O)c1cc(Cl)c(C)c(Cl)c1)C(=O)CCl [Compound 1, S enantiomer, (S)-N-(3-chloro-1-ethyl-1-methyl-2-oxopropyl)-3,5-dichloro-4-methylbenzamide] | 2.18 | 2.03 | 2.13 | 90 | 100 | 100 | 99 | 100 | 100 | 90 | 99 | 95 | 75 | 90 | 99 | 75 | 90 | 95 | 
7 | CC[C@](C)(NC(=O)c1cc(Cl)cc(Cl)c1)C(=O)CCl [Compound 2, S enantiomer] | 2.68 | 1.85 |  |  |  |  |  |  |  |  |  |  |  |  |  |  |  |  | 
